PubChem BioAssay AID449750 (Broad Institute, 2010)
Calls of active or inactive are those of the source. How the calls were made is not given here.

Assay: non-covalent RecA intein splicing inhibitors, dose response, biochemical, cell-free, fluorescence, secondary screen (AID 449750)

SMILES	AC50
Cc1nn(-c2cccc(Cl)c2)c2c1C(c1cccnc1)C(C#N)=C(N)O2 (configuration not stated)	34.6 µM
COc1ccccc1NC(=O)c1cnc(SCC(=O)NCC2CCCO2)n(C)c1=O (configuration not stated)	> 38 µM (inactive)
COc1ccc(C(=O)N/N=C\c2coc3ccc(Cl)cc3c2=O)cc1	> 38 µM (inactive)
Oc1cccc(Nc2nc(-c3ccccc3Cl)nc3ccccc23)c1	> 38 µM (inactive)
Cc1ccccc1-c1nc(CN(C)C(C)c2ccon2)c(C)o1 (configuration not stated)	> 38 µM (inactive)
CCCc1ccc(/C=C2\C(=O)c3ccccc3C(O)=C2C(=O)OCC)cc1	8.63 µM
O=C(Nc1ccc(Cl)cc1)/C(=C/c1cccc(O)c1)c1nc2ccccc2s1	3.1 µM
COc1ccc(-n2nc3c(c2NC(=O)CCl)CSC3)cc1	26.9 µM
COc1ccc(/C=C/C(=O)c2ccccc2)cc1COc1ccc(F)cc1	2.18 µM
O=C1/C(=N\S(=O)(=O)c2cccs2)C([n+]2ccccc2)=C([O-])c2ccccc21	7.78 µM
CN(C)c1ccc2nsnc2c1[N+](=O)[O-]	> 38 µM (inactive)
CCOC(=O)c1c(CCl)nc2ccccc2c1-c1ccccc1	8.34 µM
Cc1noc2ncnc(Sc3ccc(Br)cc3)c12	13.5 µM
COc1ccc(C=C(c2nc3ccccc3s2)c2nc3ccccc3s2)cc1O	3.04 µM
CC(=O)NC1N=C(C)N(c2ccccc2)C1=O (configuration not stated)	33.7 µM
Cc1[nH]nc2c1C(c1ccc(OC(=O)c3ccco3)cc1)C(C#N)=C(N)O2 (configuration not stated)	> 38 µM (inactive)
O=c1cc(-c2cccc([N+](=O)[O-])c2)[nH][nH]1	9.77 µM
ClC(Cl)(Cl)c1nc2ccccc2n2nncc12	> 38 µM (inactive)
O=C(NC1=C(NC2CCS(=O)(=O)C2)C(=O)c2ccccc2C1=O)c1ccccc1 (configuration not stated)	1.17 µM
CCOC(=O)c1sc(N(Cc2ccccc2)C(=O)CCl)nc1C	5.79 µM
CCN(CC)CCN1C(=O)C(O)=C(C(C)=O)C1c1ccccc1[N+](=O)[O-] (configuration not stated)	37.7 µM
CCc1ccc(NC(=O)C(=O)N/N=C(\C)CC(=O)Nc2ccccn2)cc1	> 38 µM (inactive)

SMILES	AC50
O=C(CCl)N(Cc1cc(=O)[nH]c2ccccc12)c1ccccc1	8.46 µM
CN1CCN(C(c2ccc(Br)cc2)c2cc(Cl)c3cccnc3c2O)CC1 (configuration not stated)	5.33 µM
O=c1[nH]c(Nc2ccc(F)cc2)cc2ccccc12	2.58 µM
C#CC(=O)N(c1cc(OC)ccc1OC)C(C(=O)NC1CCCC1)c1cccs1 (configuration not stated)	2.35 µM
CC(=O)N1CC2(c3ccccc3)CN(C(C)=O)CC(c3ccccc3)(C1)C2=O	> 38 µM (inactive)
CCOc1ccccc1Nc1nnc(Cc2ccccc2Cl)c(=O)[nH]1	> 38 µM (inactive)
Cc1ccc(S(=O)(=O)NC(=O)Nc2ccc(N(C)C)cc2)cc1	31 µM
CCCc1nn(C)c2c1C(c1cccnc1)C(C#N)=C(N)O2 (configuration not stated)	> 38 µM (inactive)
Oc1ccc(C=Nc2ccc3ncccc3c2)c(O)c1	3.75 µM
COC(=O)c1cccc(N2C(=O)C(Cl)=C(N3CCOCC3)C2=O)c1	> 38 µM (inactive)
CC(=O)Oc1ccc(N(C(C)=O)S(=O)(=O)c2ccc3ccccc3c2)cc1Br	29.5 µM
O=C(Nc1nc(-c2ccccc2)cs1)c1ccccc1NS(=O)(=O)c1ccc(F)cc1	8.16 µM
CC1(C)CC(=O)C(C2(O)C(=O)NC(=O)NC2=O)=C(O)C1	1.79 µM
Cc1nnc(N/N=C/c2cccc(OCc3ccc(Cl)c(Cl)c3)c2)n1N	23.4 µM
CC1=NN(c2ccc(N)cc2)C(=O)C1	3.44 µM
CC1=NN(c2ccccc2)C(=O)/C1=C\c1cn(CCC#N)nc1-c1ccc(Cl)cc1	> 38 µM (inactive)
COc1ccc(NC(=O)Cn2ncc(Cl)c(Cl)c2=O)cc1S(=O)(=O)N1CCOCC1	> 38 µM (inactive)
Cc1ccc(NC2=C(NCCO)C(=O)c3ccccc3C2=O)cc1	20.3 µM
C/C(CC(=O)Nc1ccc(Cl)cn1)=N\NC(=O)Cc1cccs1	> 38 µM (inactive)
COc1ccc(N2C(=O)C(Cl)=C(Oc3cccc(OC)c3)C2=O)cc1	> 38 µM (inactive)
O=c1[nH]c(Nc2ccccc2Cl)cc2ccccc12	15.5 µM
CCCCCCn1c(N2CCC(C(N)=O)CC2)nc2c1c(=O)n(C)c(=O)n2C	> 38 µM (inactive)

SMILES	AC50
Cc1ccc(NC2=CC(=O)C(=O)c3ccccc32)cc1	6.16 µM
Cc1cc(C)n(-c2ccc([N+](=O)[O-])cc2)n1	> 38 µM (inactive)
O=C(O)COc1cccc(/C=C2/SC(=S)N(Cc3ccccc3)C2=O)c1	21.5 µM
[O-][n+]1c2c(nc3c1-c1ccccc1C3O)CCCC2 (configuration not stated)	31.2 µM
Cc1ccccc1-c1cc2c(nn1)-c1ccccc1C2=O	8.26 µM
Cc1[nH]n(-c2ccccc2)c(=O)c1/C=N\NC(=O)C1COc2ccccc2O1 (configuration not stated)	8.94 µM
O=C(CCl)N(c1ccc(Cl)cc1)c1c[nH]c2ccccc12	0.746 µM
CCOC(=O)c1c(NC(=O)c2ccco2)n(C2CCCCC2)c2nc3ccccc3nc12	> 12 µM (inactive)
Cc1ccc(C(c2cc(Cl)c3cccnc3c2O)N2CCN(C)CC2)cc1 (configuration not stated)	19.3 µM
Cc1cccc(C(=O)c2cnc3ccccc3c2-c2ccccc2)c1	14.4 µM
CCCCCC(=O)O[C@]1(C(C)=O)CC[C@H]2[C@@H]3CCC4=CC(=O)CC[C@]4(C)[C@H]3CC[C@@]21C	2.02 µM
Cc1cc(C(=O)Cn2ncc(Cl)c(Cl)c2=O)c(C)n1CC(F)(F)F	> 38 µM (inactive)
COc1cccc(-c2[nH]nc3c2C(c2ccoc2)C(C#N)=C(N)O3)c1 (configuration not stated)	28.8 µM
Cc1ccc(S(=O)(=O)N(C(=O)c2ccncc2)c2ccc(OC(=O)c3ccncc3)c3ccccc23)c(C)c1	16.9 µM
COc1ccc(-c2cc(C(=O)n3cnc4ccccc43)c3ccccc3n2)cc1	> 38 µM (inactive)
COC(=O)c1ccc(NC(=O)c2nc(S(=O)(=O)Cc3cccc(C)c3)ncc2Cl)cc1	17.1 µM
Fc1ccc(Sc2nc(-c3ccccc3)nnc2C(F)(F)F)cc1	> 38 µM (inactive)
O=c1[nH]cc(NCCc2ccccc2)c(=O)[nH]1	> 38 µM (inactive)
O=c1[nH]c(CCl)nc2cc(-c3ccc(F)cc3)sc12	11.9 µM
O=C1c2[nH]nc(-c3ccccc3O)c2C(c2cccc(Cl)c2)N1Cc1ccco1 (configuration not stated)	> 38 µM (inactive)
Cc1[nH][nH]c(=O)c1C(c1c(C)[nH][nH]c1=O)c1cn(Cc2ccccc2Cl)c2ccccc12	1.68 µM
COC(=O)/C(=C1/Oc2cc(C)oc(=O)c2S1)C(F)(F)F	> 38 µM (inactive)

SMILES	AC50
CCOc1cc(/C=C2/C(=O)N(c3ccccc3)N=C2C)ccc1OC(=O)c1ccco1	3.17 µM
Nc1c(-c2ccccc2)c(CSc2nc3ccccc3[nH]2)nn1-c1cccc(Cl)c1	> 38 µM (inactive)
CC1=Nc2cccc3cccc(c23)N1C	> 38 µM (inactive)
O=C1C(Cl)=C(N2CCOCC2)C(=O)N1c1cccc(C(F)(F)F)c1	> 38 µM (inactive)
CC(C)c1ccc(/C=N/NC(=O)c2nnn(-c3nonc3N)c2CSC2=NCCS2)cc1	27.6 µM
CCOC(=O)C1CCN(c2nc(N)c3c(N)nc(SCC(=O)O)cc3c2C#N)CC1	> 12 µM (inactive)
CC(C)c1[nH]nc2c1C(c1ccco1)C(C#N)=C(N)O2 (configuration not stated)	> 38 µM (inactive)
CCOC(=O)Cn1cc(/C=N/NC(=O)CC#N)c2ccccc21	> 38 µM (inactive)
CCCCCCCCCC[N+](C)(C)CC/C=C1/c2ccccc2Sc2ccc(Cl)cc21	5.09 µM
Cc1ccc2[nH]c3c(c2c1)CN(C(=O)CN1CCSCC1)CC3	> 38 µM (inactive)
FC(F)(F)c1nnc(-c2ccccc2)nc1Sc1ccccc1	> 38 µM (inactive)
CCN(CC)CCN1C(=O)c2cccc3cc(N)cc(c23)C1=O	1.69 µM
COC(=O)CC1(c2cccc3ccccc23)C(=O)c2ccccc2C1=O	19.1 µM
O=C(Sc1nnc(-c2ccccc2)o1)N1c2ccccc2Sc2ccccc21	11 µM
[O-]C1=N/[N+](=C/c2ccccc2)CC1	> 38 µM (inactive)
COC1=CC(=O)C(O)=C(CCCCCCC/C=C/CCCCCCCC2=C(O)C(=O)C=C(OC)C2=O)C1=O	4.64 µM
O=C(N/N=C/c1coc2ccc(Cl)cc2c1=O)c1ccc(O)cc1	> 38 µM (inactive)
Nc1ccc(Nc2ccccc2N)cc1	16 µM
COc1ccc(/C=C/C(=O)c2ccncc2)c2ccccc12	18.6 µM
COc1ccc(CN(CCC(c2ccccc2)c2ccc(OC(C)C)cc2)C(=O)CCl)cc1OC (configuration not stated)	0.569 µM
CCOc1ccc(NC(=O)C(c2ccccn2)N(C(=O)CCl)c2ccc(F)cc2)cc1 (configuration not stated)	36.2 µM
CCN(CC)CCNC(=O)c1ccc2c(c1NCCO)C(=O)c1ccccc1C2=O	13.1 µM

SMILES	AC50
Cc1ccc(SC(=O)c2c(C)noc2-c2cc(C)on2)cc1	> 38 µM (inactive)
O=C(CSc1nnc(-c2ccccc2Cl)o1)Oc1ccc(Br)cc1	> 38 µM (inactive)
CCN(CC)CCOc1ccc(/C(=C(/Cl)c2ccccc2)c2ccccc2)cc1	9.31 µM
C/C(CC(=O)Nc1ccccn1)=N\NC(=O)c1ccncc1	28.8 µM
N#Cc1c(N2CCCC2)nc(N)c2c(N)nc(N3CCCC3)cc12	0.774 µM
CCOc1cc(/C=C2/C(=N)N3C(=NC2=O)SN=C3S(=O)(=O)C(C)C)ccc1OC(=O)c1ccco1	> 38 µM (inactive)
Cc1ccc(C(c2c(C)[nH][nH]c2=O)c2c(C)[nH][nH]c2=O)cc1[N+](=O)[O-]	32.1 µM
O=C1C=C(Nc2ccccc2C(=O)O)c2ccccc2C1=O	6.57 µM
O=C(Oc1ccc(Br)cc1C(=S)N1CCOCC1)c1cccc([N+](=O)[O-])c1	> 38 µM (inactive)
C=COC(=O)CSc1snc(SCC(=O)OC)c1C#N	> 38 µM (inactive)
COc1ccc(-c2cc(=O)[nH][nH]2)cc1OC	4.35 µM
CCOC(=O)c1c(C)[nH]c2c1-c1ccccc1C(=O)C2=O	5.39 µM
CCN(CC)CCOc1ccc(/C(=C(\Cl)c2ccccc2)c2ccccc2)cc1	9.57 µM
O=C(/C=C/c1cccs1)Nc1scc(-c2ccccc2)c1C(=O)O	23.7 µM
Cc1ccc(NC(=O)CCl)cc1S(=O)(=O)N1CCCCCC1	10 µM
COc1ccc(C(C(=O)NC2CCCCC2)N(C(=O)CCl)c2cccc(Cl)c2)cc1 (configuration not stated)	0.577 µM
O=C(NC1CCCCC1)C(c1cccnc1)N(C(=O)CCl)c1ccc(F)cc1 (configuration not stated)	5.58 µM
COc1cccc(/C=C2\SC(=S)N(CCCC(=O)N(CCO)c3ccccc3)C2=O)c1	> 38 µM (inactive)
Cc1sc2ncnc(Sc3nnnn3-c3ccccc3)c2c1C	> 38 µM (inactive)
